Assay results from ChEMBL document CHEMBL1147897, “Synthesis of enantiomerically pure milnacipran analogs and inhibition of dopamine, serotonin, and norepinephrine transporters” (Bioorg Med Chem Lett, 2007).
“And” between values parts separate entries of the source, which are not always exact repeats. Identical values can stand only once.

Tests used:
Type in all cases: functional, subcellular, Brain
[1] = molecular target: Sodium-dependent dopamine transporter (Rattus norvegicus, UniProt P23977); assay: Inhibition of [3H]5-HT uptake at DA transporter in Wistar rat synaptosomes
[2] = molecular target: Sodium-dependent serotonin transporter (Rattus norvegicus, UniProt P31652); assay: Inhibition of [3H]5-HT uptake at 5HT transporter in Wistar rat synaptosomes
[3] = molecular target: Norepinephrine transporter (Rattus norvegicus, UniProt Q9WTR4); assay: Inhibition of [3H]5-HT uptake at NE transporter in Wistar rat synaptosomes
Chain of Norepinephrine transporter (Q9WTR4 whole entry): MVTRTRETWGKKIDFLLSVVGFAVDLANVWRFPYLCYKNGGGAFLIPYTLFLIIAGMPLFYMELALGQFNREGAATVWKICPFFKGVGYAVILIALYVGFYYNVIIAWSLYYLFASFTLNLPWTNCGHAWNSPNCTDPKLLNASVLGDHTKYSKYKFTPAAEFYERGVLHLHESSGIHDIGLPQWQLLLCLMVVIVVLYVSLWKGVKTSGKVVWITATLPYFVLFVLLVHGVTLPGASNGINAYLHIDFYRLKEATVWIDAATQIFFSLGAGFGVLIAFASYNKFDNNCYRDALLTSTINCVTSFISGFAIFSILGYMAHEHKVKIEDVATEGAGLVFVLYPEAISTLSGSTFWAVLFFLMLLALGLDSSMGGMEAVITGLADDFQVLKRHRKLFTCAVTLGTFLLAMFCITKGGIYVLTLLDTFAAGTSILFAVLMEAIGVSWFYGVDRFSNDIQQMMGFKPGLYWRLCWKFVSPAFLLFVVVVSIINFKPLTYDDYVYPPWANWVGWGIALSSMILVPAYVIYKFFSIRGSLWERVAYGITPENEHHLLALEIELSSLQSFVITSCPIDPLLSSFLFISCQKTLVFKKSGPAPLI

Chain of Sodium-dependent dopamine transporter (P23977 whole entry): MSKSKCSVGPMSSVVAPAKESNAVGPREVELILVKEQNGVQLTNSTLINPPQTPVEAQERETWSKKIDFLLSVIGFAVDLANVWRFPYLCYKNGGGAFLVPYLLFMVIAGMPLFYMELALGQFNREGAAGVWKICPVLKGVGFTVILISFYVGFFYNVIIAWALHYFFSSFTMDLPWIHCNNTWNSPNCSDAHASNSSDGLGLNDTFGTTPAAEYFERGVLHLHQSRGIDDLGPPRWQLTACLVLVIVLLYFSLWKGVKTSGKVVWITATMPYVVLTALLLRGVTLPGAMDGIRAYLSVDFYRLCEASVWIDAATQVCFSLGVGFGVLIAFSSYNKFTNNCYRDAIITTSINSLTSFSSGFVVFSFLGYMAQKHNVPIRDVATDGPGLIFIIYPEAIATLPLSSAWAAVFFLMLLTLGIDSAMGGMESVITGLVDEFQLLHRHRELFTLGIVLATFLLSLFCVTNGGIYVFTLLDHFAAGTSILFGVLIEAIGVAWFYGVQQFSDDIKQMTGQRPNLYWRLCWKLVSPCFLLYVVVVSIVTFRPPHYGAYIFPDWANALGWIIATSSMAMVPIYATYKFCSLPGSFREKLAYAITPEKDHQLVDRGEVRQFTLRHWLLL
Chain of Sodium-dependent serotonin transporter (P31652 whole entry): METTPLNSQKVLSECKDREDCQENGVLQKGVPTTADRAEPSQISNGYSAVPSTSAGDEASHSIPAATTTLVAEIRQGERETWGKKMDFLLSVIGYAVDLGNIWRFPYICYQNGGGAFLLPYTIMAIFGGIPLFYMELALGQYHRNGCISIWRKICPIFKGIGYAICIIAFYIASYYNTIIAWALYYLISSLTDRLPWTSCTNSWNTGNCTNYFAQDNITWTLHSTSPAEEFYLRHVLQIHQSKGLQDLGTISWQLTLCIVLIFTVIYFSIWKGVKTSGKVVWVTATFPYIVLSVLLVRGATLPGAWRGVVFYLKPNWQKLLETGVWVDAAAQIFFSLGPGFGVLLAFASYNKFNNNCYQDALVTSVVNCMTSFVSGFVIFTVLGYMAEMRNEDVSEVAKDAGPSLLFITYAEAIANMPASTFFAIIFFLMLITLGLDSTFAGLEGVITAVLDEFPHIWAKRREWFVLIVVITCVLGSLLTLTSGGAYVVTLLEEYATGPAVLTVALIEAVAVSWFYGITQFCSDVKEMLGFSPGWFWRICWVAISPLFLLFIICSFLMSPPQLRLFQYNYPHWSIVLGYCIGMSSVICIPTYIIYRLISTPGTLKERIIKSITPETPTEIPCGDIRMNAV

IC50 [1] [nM]	IC50 [2]	IC50 [3] [nM]	Structure (SMILES)
3700	190 nM		CCN(CC)C(=O)[C@]1(c2ccc(Cl)cc2)C[C@@H]1CN
540	84 nM	10	CCN(CC)C(=O)[C@]1(c2ccc(Cl)c(Cl)c2)C[C@@H]1CN
	230 nM	140	CCN(CC)C(=O)[C@]1(c2ccc(OC)cc2)C[C@@H]1CN
5300	1200 nM	200	CCN(CC)C(=O)[C@]1(c2cccc3ccccc23)C[C@@H]1CN
	250 nM and 520 nM		CCN(CC)C(=O)[C@]1(c2cccs2)C[C@@H]1CN
	250 nM	410	CCN(CC)C(=O)[C@]1(c2ccsc2)C[C@@H]1CN
	790 nM		CCN(CC)C(=O)[C@@]1(c2ccc(Cl)cc2)C[C@H]1CN
	510 nM	35	CCN(CC)C(=O)[C@@]1(c2ccc(OC)cc2)C[C@H]1CN
10000	7100 nM	370	CCN(CC)C(=O)[C@@]1(c2cccc3ccccc23)C[C@H]1CN
10000	190 nM	19	CCN(CC)C(=O)[C@@]1(c2ccsc2)C[C@H]1CN
10000	320 nM	500	CCN(CC)C(=O)[C@]1(c2ccc(F)cc2)C[C@@H]1CN
140	18 nM	5	CCN(CC)C(=O)[C@]1(c2ccc3ccccc3c2)C[C@@H]1CN
1400	130 nM	29	CCN(CC)C(=O)[C@@]1(c2ccc3ccccc3c2)C[C@H]1CN
9000	86 nM	33	CCN(CC)C(=O)[C@@]1(c2cccc(Cl)c2)C[C@H]1CN
	210 nM	63	CCN(CC)C(=O)[C@@]1(c2ccc(F)cc2)C[C@H]1CN
	170 nM	38	CCN(CC)C(=O)[C@]1(c2cccc(Cl)c2)C[C@@H]1CN
1700	440 nM	26	CCN(CC)C(=O)[C@@]1(c2ccc(Cl)c(Cl)c2)C[C@H]1CN
